Source: ChEMBL document CHEMBL1201862, “PubChem BioAssay data set” (2004)
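Following 48 hours of exposure in 96-well plates, responses at five concentrations were used to interpolate endpoints linearly. GI50 is the concentration that inhibits growth by half.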 The source made the active and inactive calls. No stated cut-off is given here; in the data, active = GI50 up to about 1.1 µM and inactive = higher.

Assays:
Assay in all cases: inhibition of tumour cell growth, NCI panel, 48 h
[1] = system: SK-MEL-2
[2] = system: NCI-H23
[3] = system: HCT-15
[4] = system: 786-0
[5] = system: HCC 2998
[6] = system: OVCAR-4
[7] = system: HOP-62
[8] = system: OVCAR-5
[9] = system: SF-268
[10] = system: K562
[11] = system: RXF 393
[12] = system: Hs-578T
[13] = system: T47D
[14] = system: DU-145
[15] = system: SF-539
[16] = system: SNB-78
[17] = system: SK-MEL-28
[18] = system: SK-MEL-5
[19] = system: MOLT-4
[20] = system: BT-549

| Compound | GI50 [1] | GI50 [2] | GI50 [3] [µM] | GI50 [4] | GI50 [5] | GI50 [6] | GI50 [7] | GI50 [8] | GI50 [9] | GI50 [10] | GI50 [11] | GI50 [12] | GI50 [13] | GI50 [14] | GI50 [15] | GI50 [16] | GI50 [17] | GI50 [18] | GI50 [19] | GI50 [20] |
| --- | --- | --- | --- | --- | --- | --- | --- | --- | --- | --- | --- | --- | --- | --- | --- | --- | --- | --- | --- | --- |
| CCCC/C=C1/CCC(CN(C)C)C1=O (configuration not stated) | 4.49 µM (inactive) | 3.41 µM (inactive) | 0.401 | 1.55 µM (inactive) | 1.56 µM (inactive) | 1.92 µM (inactive) | 20 µM (inactive) | 6.01 µM (inactive) | 2.47 µM (inactive) | 0.701 µM (active) | 1.77 µM (inactive) | 3.18 µM (inactive) | 1.31 µM (inactive) | 15.6 µM (inactive) | 2.48 µM (inactive) | 2.3 µM (inactive) | 1.92 µM (inactive) | 9.02 µM (inactive) |  |  |
| CCc1ccccc1NC(=O)/C(=N/O)C(C)=O | > 100 µM (inactive) | > 100 µM (inactive) | > 100 | > 100 µM (inactive) | > 100 µM (inactive) | > 100 µM (inactive) | > 100 µM (inactive) |  | > 100 µM (inactive) | > 100 µM (inactive) | > 100 µM (inactive) |  |  |  | > 100 µM (inactive) | > 100 µM (inactive) | > 100 µM (inactive) | > 100 µM (inactive) | > 100 µM (inactive) |  |
| CC1CCCP(=O)(c2ccccc2)CCC1 (configuration not stated) | > 100 µM (inactive) | > 100 µM (inactive) | > 100 | > 100 µM (inactive) | > 100 µM (inactive) | > 100 µM (inactive) | > 100 µM (inactive) | > 100 µM (inactive) | > 100 µM (inactive) | > 100 µM (inactive) | > 100 µM (inactive) |  |  |  | > 100 µM (inactive) | > 100 µM (inactive) | > 100 µM (inactive) | > 100 µM (inactive) | > 100 µM (inactive) |  |
| O=C(Cc1nc2ccccc2s1)C(=O)Nc1cccc(Cl)c1 | > 100 µM (inactive) | > 100 µM (inactive) | > 100 | > 100 µM (inactive) | > 100 µM (inactive) | > 100 µM (inactive) | > 100 µM (inactive) | > 100 µM (inactive) | > 100 µM (inactive) | > 100 µM (inactive) | > 100 µM (inactive) |  |  |  | > 100 µM (inactive) | > 100 µM (inactive) | > 100 µM (inactive) | > 100 µM (inactive) |  |  |
| COc1cc(CCCC(O)COc2cccc3c2C2(O)CCCCCC32)cc(OC)c1 (configuration not stated) | 20.7 µM (inactive) | 16.9 µM (inactive) | 17.6 | 15.1 µM (inactive) | 4.97 µM (inactive) | 18.2 µM (inactive) | 15 µM (inactive) | 15.4 µM (inactive) | 17.9 µM (inactive) | 11.6 µM (inactive) | 24.8 µM (inactive) |  |  |  | 13.4 µM (inactive) | 20.7 µM (inactive) | 17 µM (inactive) | 7.85 µM (inactive) | 17.7 µM (inactive) |  |
| Cc1nc2sccn2c1C(=O)NC(=O)Nc1ccc(Cl)cc1 | > 100 µM (inactive) | 35.7 µM (inactive) | > 100 | 48.2 µM (inactive) | > 100 µM (inactive) | > 100 µM (inactive) | 41.3 µM (inactive) | > 100 µM (inactive) | 39.6 µM (inactive) | > 100 µM (inactive) | 37.8 µM (inactive) |  |  |  | 41.2 µM (inactive) | 42.9 µM (inactive) | > 100 µM (inactive) | > 100 µM (inactive) | > 100 µM (inactive) |  |
| CCOC(=N)CC(=O)NC(C)c1ccccc1 (configuration not stated) | > 100 µM (inactive) | > 100 µM (inactive) | > 100 | > 100 µM (inactive) | 87.7 µM (inactive) | > 100 µM (inactive) | > 100 µM (inactive) | > 100 µM (inactive) | > 100 µM (inactive) | > 100 µM (inactive) | > 100 µM (inactive) |  |  |  | > 100 µM (inactive) | > 100 µM (inactive) | > 100 µM (inactive) | > 100 µM (inactive) | > 100 µM (inactive) |  |
| CC(=O)OCC1OC(OC2C(COC(C)=O)OC(Sc3ccccc3C)C(OC(C)=O)C2OC(C)=O)C(OC(C)=O)C(OC(C)=O)C1OC(C)=O (configuration not stated) | > 100 µM (inactive) | > 100 µM (inactive) | > 100 | > 100 µM (inactive) | > 100 µM (inactive) | > 100 µM (inactive) | > 100 µM (inactive) | > 100 µM (inactive) | > 100 µM (inactive) | > 100 µM (inactive) | > 100 µM (inactive) |  |  |  | > 100 µM (inactive) | > 100 µM (inactive) | > 100 µM (inactive) | > 100 µM (inactive) | > 100 µM (inactive) |  |
| CCOC(=O)/C(C(C)=O)=C1/N[C@H](C(=O)OCC)CS1 | > 100 µM (inactive) | > 100 µM (inactive) | > 100 | > 100 µM (inactive) | > 100 µM (inactive) | > 100 µM (inactive) | > 100 µM (inactive) | > 100 µM (inactive) | > 100 µM (inactive) | > 100 µM (inactive) | > 100 µM (inactive) |  |  |  | 10 µM (inactive) | > 100 µM (inactive) | > 100 µM (inactive) | > 100 µM (inactive) | > 100 µM (inactive) |  |
| CC1=CC2CC(C)=C(CC[C@]3(C)CC[C@H]([C@@H](C)C(=O)O)OO3)C(C)(C)C2CC1 (some centres not stated) | 1.6 µM (inactive) | 0.9 µM (active) | 0.675 | 1.45 µM (inactive) | 0.292 µM (active) | 0.442 µM (active) | 1.75 µM (inactive) | 2.34 µM (inactive) | 1.62 µM (inactive) | 0.208 µM (active) | 0.372 µM (active) |  |  |  | 1.26 µM (inactive) | 1.51 µM (inactive) | 1.57 µM (inactive) | 1.26 µM (inactive) |  |  |
| CCOC(=N)CC(=O)Nc1cccc(Cl)c1 | > 100 µM (inactive) | 4.9 µM (inactive) |  | > 100 µM (inactive) | 67 µM (inactive) | > 100 µM (inactive) | > 100 µM (inactive) | > 100 µM (inactive) | > 100 µM (inactive) | > 100 µM (inactive) | > 100 µM (inactive) |  |  |  | > 100 µM (inactive) | 5.65 µM (inactive) | > 100 µM (inactive) | > 100 µM (inactive) | > 100 µM (inactive) |  |
| COc1cccc2nc3c(C(=O)NCCN(C)C)cccc3nc12 | 8.73 µM (inactive) | 11.8 µM (inactive) | 7 | 10.6 µM (inactive) | 10.8 µM (inactive) | 8.77 µM (inactive) | 11.4 µM (inactive) | 15.9 µM (inactive) | 0.713 µM (active) | 3.76 µM (inactive) | 11.6 µM (inactive) |  |  |  | 4.27 µM (inactive) | 12.9 µM (inactive) | 13.8 µM (inactive) | 11.8 µM (inactive) | 3.61 µM (inactive) |  |
| [N-]=[N+]=C1C(=O)C2CC3CC1CC2C3 (configuration not stated) | > 100 µM (inactive) | > 100 µM (inactive) | > 100 | > 100 µM (inactive) | > 100 µM (inactive) | > 100 µM (inactive) | > 100 µM (inactive) | > 100 µM (inactive) | > 100 µM (inactive) | > 100 µM (inactive) | > 100 µM (inactive) |  |  |  | > 100 µM (inactive) | > 100 µM (inactive) | > 100 µM (inactive) | > 100 µM (inactive) | > 100 µM (inactive) |  |
| CC1=C(C(=O)Nc2ccccc2C)C(c2ccccc2)C(C(=O)Nc2ccccc2C)=C(C)N1 | 26.6 µM (inactive) | 23.7 µM (inactive) | 40.6 | 68.9 µM (inactive) | 32.4 µM (inactive) | 28.5 µM (inactive) | 40.6 µM (inactive) | > 100 µM (inactive) | > 100 µM (inactive) | 22.6 µM (inactive) | 23.9 µM (inactive) |  |  |  | 60.4 µM (inactive) | 32.9 µM (inactive) | > 100 µM (inactive) | 29.2 µM (inactive) | 9.95 µM (inactive) |  |
| CC[C@@]1(O)C(=O)OCc2c1cc1n(c2=O)Cc2cc3cc(O)ccc3nc2-1 [HYDROXYCAMPTOTHECIN] | 0.473 µM (active) | 0.0176 µM (active) | 0.295 | 0.0241 µM (active) |  | 0.092 µM (active) | < 0.0109 µM (active) | 0.047 µM (active) |  |  | 0.0236 µM (active) | 1.04 µM (active) | 0.01 µM (active) | 0.01 µM (active) | 0.00826 µM (active) | 0.248 µM (active) |  |  | 0.00944 µM (active) | 0.0543 µM (active) |
